Data as given in PubChem BioAssay (NCI).
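48-hour exposure; five concentrations; linearly interpolated endpoints. GI50 = concentration required for 50% inhibition of growth. TGI is the concentration that stops growth completely.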

What was measured:
Experiment in all cases: NCI tumour cell line growth inhibition, 48 h
NCI/ADR-RES ovarian = system: NCI/ADR-RES ovarian
T-47D breast = system: T-47D breast
COLO 205 colon = system: COLO 205 colon
ACHN renal = system: ACHN renal
NCI-H522 lung = system: NCI-H522 lung
SF-295 CNS = system: SF-295 CNS
IGROV1 ovarian = system: IGROV1 ovarian
SK-MEL-28 melanoma = system: SK-MEL-28 melanoma
CCRF-CEM leukemia = system: CCRF-CEM leukemia
NCI-H226 lung = system: NCI-H226 lung

Row | SMILES | GI50 (NCI/ADR-RES ovarian) [µM] | TGI (NCI/ADR-RES ovarian) [µM] | GI50 (T-47D breast) [µM] | TGI (T-47D breast) [µM] | GI50 (COLO 205 colon) [µM] | TGI (COLO 205 colon) [µM] | GI50 (ACHN renal) [µM] | TGI (ACHN renal) [µM] | GI50 (NCI-H522 lung) [µM] | TGI (NCI-H522 lung) [µM] | GI50 (SF-295 CNS) [µM] | TGI (SF-295 CNS) [µM] | GI50 (IGROV1 ovarian) [µM] | TGI (IGROV1 ovarian) [µM] | GI50 (SK-MEL-28 melanoma) [µM] | TGI (SK-MEL-28 melanoma) [µM] | GI50 (CCRF-CEM leukemia) [µM] | TGI (CCRF-CEM leukemia) [µM] | GI50 (NCI-H226 lung) [µM] | TGI (NCI-H226 lung) [µM]
1 | O=C(Nc1ccc(-n2cc(-c3ccncc3)c(-c3ccc(Cl)c(O)c3)n2)cc1)c1cc(C(F)(F)F)cc(C(F)(F)F)c1 | 6.91 | > 100 | 2.16 | 9.35 | 3.17 | 14 | 6.47 | 31.1 | 14 | 57.7 | 3.31 | 18.1 | 11.5 | 34.5 | 4.88 | 20 | 4.87 | > 100 | 3.63 | 18.8
2 | O=C1Nc2ccc(-c3cccnc3)cc2/C1=C/c1cc(Br)c(O)c(Br)c1 | > 20 | > 25 | 10.6 | > 25 | 11.8 | > 25 | 8.15 | > 25 | 4.38 | 13.7 | 5.25 | 13.7 | 7.09 | > 25 | 4.89 | 14.6 | 5.43 | > 25 | 8.43 | > 25
3 | C/C(=C/CCC(C)[C@@H]1CC[C@]2(C)C3=C(CC[C@@]12C)[C@@]1(C)CCC(=O)C(C)(C)[C@@H]1CC3)C(=O)O (some centres undefined) | 1.54 | 3.26 | 1.14 | 3.08 | 1.86 | 3.6 | 1.29 | 2.73 | 0.728 | 2.21 | 0.506 | 2.02 | 1.19 | 2.6 | 1.42 | 2.82 | 0.708 | 2.5 | 1.46 | 4.56
4 | Nc1nc(-c2ccccc2)c(CC(=O)O)s1 |  | > 100 |  | > 100 |  | > 100 |  | > 100 |  | > 100 |  | > 100 |  | > 100 |  | > 100 |  |  |  | > 100
5 | Nc1nc(Cl)c2ncn(Cc3ccc(C45CC6CC(CC(C6)C4)C5)c(OCc4cc(F)c(F)cc4F)c3)c2n1 | 3.5 | 13.8 | 6.75 | 44.8 | 4.22 | 22 | 3.4 | 13.7 | 2.8 | 12.3 | 3.44 | 17.1 | 2.77 | 13.8 | 8.12 | 26.3 | 1.66 | 4.16 | 5.69 | 21.9
6 | O=C(CCCCN1CCN(CCCCC(=O)Nc2ccccc2C#C/C=C\C#Cc2ccccc2C(F)(F)F)CC1)Nc1ccccc1C#C/C=C\C#Cc1ccccc1C(F)(F)F | 9.64 | 20 | 13.2 | 29.2 | 38.3 | > 50 | 20.9 | > 50 | 9.19 | 20.4 | 19 | > 50 | 9.37 | 26.2 | 9.76 | 18.4 | 6.02 | 17 | 40.7 | > 50
7 | O=[N+]([O-])/C=C/c1ccc2ccccc2c1 |  | > 28 |  | 2.13 |  | 5.97 |  | 4.17 |  | 33.1 |  | 19.4 |  | > 21.8 |  | 4.65 |  | > 100 |  | 21.3
8 | Nc1c(C(=O)Nc2ccccc2)sc2nc3c(cc12)C(=O)CCC3 | 0.399 | 10.6 | 1.46 | > 100 | 0.364 | 2.99 | 0.948 | > 100 | 0.215 | 1.29 | 0.435 | > 100 | 1.01 | > 100 | 0.71 | > 100 | 0.374 | > 100 | 3.91 | > 100
9 | O=C(CI)NC(=O)NC(=O)NCc1ccccc1 | 4.62 | 30.3 | 2.48 | 6.7 | 2.13 | 4.64 | 1.95 | 3.76 | 1.62 | 3.52 | 14.1 | 31.9 | 2.56 | 6.83 | 2.96 | 11.3 | 0.51 | 2.14 | 4.53 | 20.4
10 | N=C(N)n1cc(/C=N/N=C(N)N)cn1 |  | > 100 |  | > 100 |  | > 100 |  | > 100 |  | > 100 |  | > 100 |  | > 100 |  | > 100 |  | > 100 |  | > 100
11 | O=C(O)c1ccccc1NCn1nc(-c2ccccc2O)oc1=S | 54 | > 100 | 68.7 | > 100 | 49.6 | > 100 | 26.9 | 82.8 | > 100 | > 100 | > 100 | > 100 | > 100 | > 100 | > 100 | > 100 | 10.6 | 36.4 | 86.6 | > 100
12 | CCOC(=O)c1cn(C)c2c(OC)c3ccccc3c(OC)c2c1=O | 20.4 | 56.5 | 12.4 | 42.9 | 63.8 | > 100 | 46.8 | > 100 | > 100 | > 100 | 21.4 | 55.2 | 52.6 | > 100 | 56 | > 100 | 34.1 | > 100 | 23.8 | 57.1
13 | OCCNc1nc2ccccc2c2[nH]c3ccccc3c12 | 0.738 | 5.18 | 0.366 | 2.29 | 0.329 | 1.37 | 0.278 | 2.67 | 0.36 | 1.73 | 0.314 | 2.42 | 0.397 | 6.1 | 1.04 | 2.55 | 0.654 | 10.7 | 0.839 | 4.79
